Assay results as given in patent US20140329905A1, “HISTONE DEACETYLASE 10-INHIBITOR CO-TREATMENT IN CANCER” (Deutsches Krebsforschungszentrum, priority 2011, published 2014).
Like-named read-outs stand apart in the source and are kept apart here. Each block holds one compound with its values, some of them ahead of it. Peptide text beside a SMILES is read from it. * marks the point of attachment. Cbz = O=C(OCc1ccccc1)*; CH2F = FC*

What was measured:
BE(2)-C cells [1] = experiment: Caspase-3-like protease (DEVD-ase) activity assay; type: cell-based, human; conditions: 6 d after HDAC10 siRNA; z-VAD 20 μM, 3-MA 2 mM
Procedure: Caspase-3-like protease activity assay. Caspase-3-like protease activity was measured with the Caspase-3 Fluorometric Assay (BioVision) according to the manufacturer's protocol modified as described previously (Oehme et al. (2006), op. cit.). For cell death detection adherent as well as floating cells were collected.

BE(2)-C cells [2] = experiment: Acridine orange FACS quantification of acidic lysosomes; type: cell-based, human; conditions: for accumulation of acidic lysosomes (red fluorescence) by a panel of HDAC inhibitors: FIG. 1B, each inhibitor at its applied concentration (Table 1)
Procedure: For quantification of acidic lysosomes, the amount of green respectively red fluorescence was determined, since the acidification of (auto-)lysosomes causes a shift from green to red fluorescence. […] Therefore, the cytoplasm and nucleolus glow bright green, whereas acidic compartments shine bright red. By comparing the mean red-to-green fluorescence ratio within different cell populations, detection and quantification of the acidic compartment is possible. Cells were stained with phenol red-free medium containing 1 μg/ml acridine orange (Sigma) at 37° C. for 30 min, collected and resuspended in 300 μl phenolred-free medium for FACS analysis.

HDAC10 [3] = molecular target: T1, HDAC10 (Homo sapiens, UniProt Q969S8); conditions: read-out: IC50 HDAC10 from literature; cited from earlier work
T1 construct: Reaction Biology Corporation
T1 sequence (Q969S8 1-669): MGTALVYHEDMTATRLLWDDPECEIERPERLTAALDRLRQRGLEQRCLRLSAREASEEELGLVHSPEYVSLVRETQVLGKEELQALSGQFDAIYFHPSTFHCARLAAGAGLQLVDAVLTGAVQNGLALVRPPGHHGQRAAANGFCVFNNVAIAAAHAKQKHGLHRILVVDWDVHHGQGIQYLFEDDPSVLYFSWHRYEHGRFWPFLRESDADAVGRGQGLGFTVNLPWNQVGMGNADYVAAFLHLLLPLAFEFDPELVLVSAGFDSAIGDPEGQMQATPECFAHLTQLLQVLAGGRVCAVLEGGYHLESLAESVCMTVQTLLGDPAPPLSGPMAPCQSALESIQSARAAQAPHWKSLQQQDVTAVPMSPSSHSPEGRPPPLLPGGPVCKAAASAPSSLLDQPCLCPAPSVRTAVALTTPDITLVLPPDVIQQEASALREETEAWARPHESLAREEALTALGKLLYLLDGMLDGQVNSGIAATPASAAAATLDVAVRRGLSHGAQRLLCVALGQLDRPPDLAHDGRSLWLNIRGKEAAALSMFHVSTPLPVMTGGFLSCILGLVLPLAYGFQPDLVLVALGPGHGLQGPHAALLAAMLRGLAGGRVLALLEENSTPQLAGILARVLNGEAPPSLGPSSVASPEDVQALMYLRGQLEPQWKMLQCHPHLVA

astrocytes = experiment: Acridine orange FACS quantification of acidic lysosomes; type: cell-based; conditions: FIG. 1D; human astrocytes, compared with neuroblastoma cells
Procedure: For quantification of acidic lysosomes, the amount of green respectively red fluorescence was determined, since the acidification of (auto-)lysosomes causes a shift from green to red fluorescence. Acridine orange accumulates in lysosomal particles and the quenching of its fluorescence correlates with the DpH across the lysosomal membrane (Moriyama, Y, Takano, T and Ohkuma, S, (1982) Acridine orange as a fluorescent probe for lysosomal proton pump. J Biochem 92: 1333-6). Therefore, the cytoplasm and nucleolus glow bright green, whereas acidic compartments shine bright red. By comparing the mean red-to-green fluorescence ratio within different cell populations, detection and quantification of the acidic compartment is possible. Cells were stained with phenol red-free medium containing 1 μg/ml acridine orange (Sigma) at 37° C. for 30 min, collected and resuspended in 300 μl phenolred-free medium for FACS analysis. The green (510-530 nm) and the red (>650 nm) fluorescent emission of living cells, stimulated with blue laser (488 nm), were measured with FACSCalibur (Becton Dickinson, San José, Calif.) and analyzed with CellQuest Pro.

[4] = test system: Neuroblastoma cells, medulloblastoma cells (BE(2)-C, Kelly, IMR32, Med8A); experiment: WST-1 metabolic activity assay, tumor cells; type: cell-based, human; conditions: FIG. 13E; bufexamac 30 μM 6 d, co-treated with low-dose doxorubicin 72 h before assay
Procedure: (§1) WST-1 Assay. Metabolic activity was determined using the colorimetric WST-1 assay kit from Roche (Mannheim, Germany) as described in the manufacturer's manual.

BE(2)-C cells [5] = experiment: WST-1 metabolic activity assay; type: cell-based, human
Procedure: as §1

BE(2)-C cells [6] = experiment: ROS detection with CM-H2DCFDA by flow cytometry; type: cell-based, human; conditions: for effect on ROS production by HDAC10 targeting: 72 h after HDAC10 siRNA transfection
Procedure: ROS generation was quantified using CM-H2DCFDA (Molecular Probes) according to the manufacturer's instructions. Cells were incubated for 20 min with 5 μM dye and fluorescence intensity was measured with FACSCalibur and analyzed with CellQuest Pro.

Kelly cells = experiment: WST-1 metabolic activity assay; type: cell-based, human; conditions: NAC on day 4 and 5, measured day 6
Procedure: as §1

HDAC10 [7] = molecular target: T1, HDAC10; experiment: In vitro HDAC10 activity assay by Reaction Biology Corporation; type: biochemical; conditions: read-out: IC50 HDAC10 from RBC
Source text: The inhibitory activity of compounds toward HDAC10 was investigated by Reaction Biology Corporation (Malvern, Pa., USA).

BE(2)-C cells [8] = experiment: Western blot of p62 protein levels (autophagic flux); type: cell-based, human; conditions: FIG. 13C; high-dose doxorubicin 0.5 μg/ml, 48 h
Procedure: Western blot analysis was performed as described previously (Oehme et al. (2009), op. cit.). The following antibodies were used: anti-HDAC10 (Sigma), anti-LC3 (Sigma), anti-HDAC6 (Cell Signaling), anti-p62/SQSTM1 (MLB), anti-Hsc70 (Santa Cruz), anti-FLAG-M2 (Sigma) anti-GAPDH (Millipore), anti-Ac-Lysine (rabbit, Cell Signaling) and anti-β-Actin (clone AC-15, Sigma). β-Actin expression served as loading control. Ratios were calculated with the Bio-1D (Version 12.10a) Software. Protein extracts from primary neuroblastoma tumors from patients with the following characteristics were used: NB#1: […], stage 1, MYCN single copy. NB#2: […], stage 1, MYCN single copy. NB#3: […], stage 4, MYCN single copy. NB#4: […], stage 4, MYCN single copy.

IMR32 cells = experiment: Cell death by trypan blue staining; type: cell-based, human; conditions: FIG. 13A, 0.01, 0.05, 0.1 μg/ml, 24, 48, 72 h, among BE(2)-C, Kelly
Procedure: (§2) Viability assay. Trypsinized cells were pooled with corresponding supernatant, centrifuged and resuspended in 1.5 ml cell culture media. Cell viability was measured by automated trypan blue staining with Vi-Cell XR Cell Viability Analyzer from Beckman Coulter (Krefeld, Germany).

BE(2)-C cells [9] = experiment: Cell death by trypan blue staining; type: cell-based, human; conditions: FIG. 13A; 0.01, 0.05, 0.1 μg/ml; 24, 48, 72 h; among BE(2)-C, Kelly, IMR32
Procedure: as §2

SMILES: Cn1cnc(=N)c2[nH]cnc21 [3-MA]
effect on HDAC10-knockdown mediated apoptosis (caspase-3 like activity) (BE(2)-C cells [1]): did not affect the induction of cell death upon targeting of HDAC10

SMILES: CO/C1=C\C(C)=C\[C@@H](C)[C@@H](O)[C@@H](C)C/C(C)=C/C=C/[C@H](OC)[C@@H]([C@@H](C)[C@@H](O)[C@H](C)[C@@]2(O)C[C@@H](O)[C@H](C)[C@@H](C(C)C)O2)OC1=O [Bafilomycin A1]
effect on TSA-induced shift to red fluorescence (BE(2)-C cells [2]; FIG. 2, co-treatment Baf.A 10 nM with TSA 75 nM): inhibited the TSA-induced shift to red fluorescence
effect on lysosome acidification induced by HDAC10 knockdown (BE(2)-C cells [2]; FIG. 4A, Baf. A 10 nM, HDAC10 siRNA): blocked lysosome acidification induced by HDAC10 knockdown

SMILES: CCCCOc1ccc(CC(=O)NO)cc1 [Bufexamac, 2-(4-butoxyphenyl)-N-hydroxyacetamide]
IC50 (HDAC10 [3]): 12.3 µM
shift to red fluorescence (acidic lysosomes) (astrocytes): very moderate shift to red fluorescence
accumulation of acidic lysosomes (red fluorescence) by a panel of HDAC inhibitors (BE(2)-C cells [2]; BE(2)-C): significant increase in red fluorescence
metabolic activity (WST-1) [4]: significantly decreased metabolic activity
effect of bufexamac in NB cells compared to the knockdown of HDAC10 expression (BE(2)-C cells [5]; BE(2)C cells): rather low
metabolic activity (WST-1) (BE(2)-C cells [5]; FIG. 9E, bufexamac 100 μM 3 days, co-treated with doxorubicin 0.1 μg/ml 24 h before assay): strongly reduced metabolic activity

SMILES: CCN(CC)CCCC(C)Nc1ccnc2cc(Cl)ccc12 (centres unmarked) [Chloroquine]
induction of acidic lysosomes and late endosomes (BE(2)-C cells [2]; FIG. 2, FIG. 5C, BE(2)-C, chloroquine 25 μM, rapamycin 100 nM): served as positive controls for the induction of acidic lysosomes and late endosomes

SMILES: CC(=O)N(O)CCCCCNC(=O)CCC(=O)N(O)CCCCCNC(=O)CCC(=O)N(O)CCCCCN [DFO]
effect on ROS production by HDAC10 targeting (BE(2)-C cells [6]): inhibited

SMILES: CC(=O)N[C@@H](CS)C(=O)O [NAC]
effect on ROS production by HDAC10 targeting (BE(2)-C cells [6]): inhibited
viability (metabolic activity) upon HDAC10 knockdown (Kelly cells): restored viability of NB cells
viability (metabolic activity) upon HDAC10 knockdown (BE(2)-C cells [5]; BE(2)-C, NAC on day 4 and 5, measured day 6): restored viability of NB cells

SMILES: CN(C)Cc1c(C(=O)NCCOc2ccc(C(=O)NO)cc2)oc2ccccc12 [PCI-24781, 3-(dimethylaminomethyl)-N-[2-[4-(hydroxycarbamoyl)-phenoxy]ethyl]-1-benzofuran-2-carboxamide]
accumulation of acidic lysosomes (red fluorescence) by a panel of HDAC inhibitors (BE(2)-C cells [2]; BE(2)-C): significant increase in red fluorescence

SMILES: COc1ccc(Cn2ccc3ccc(C(=O)NO)cc32)cc1 [PCI-34051]
accumulation of acidic lysosomes (red fluorescence) by a panel of HDAC inhibitors (BE(2)-C cells [2]; BE(2)-C): did not

SMILES: Cc1[nH]c2ccccc2c1CCNCc1ccc(/C=C/C(=O)NO)cc1 [Panobinostat (LBH589), (2E)-N-hydroxy-3-[4-({[2-(2-methyl-1H-indol-3-yl)ethyl]amino}methyl)phenyl]acrylamide]
accumulation of acidic lysosomes (red fluorescence) by a panel of HDAC inhibitors (BE(2)-C cells [2]; BE(2)-C): significant increase in red fluorescence

SMILES: CC(C=CC(=O)NO)=CC(C)C(=O)c1ccc(N(C)C)cc1 (centres unmarked) [TSA, 7-[4-(dimethylamino)phenyl]-N-hydroxy-4,6-dimethyl-7-oxohepta-2,4-dienamide]
ROS generation (BE(2)-C cells [6]; TSA 75 nM, 24 h): TSA-induced ROS generation
accumulation of acidic lysosomes (red fluorescence) by a panel of HDAC inhibitors (BE(2)-C cells [2]; BE(2)-C): significant increase in red fluorescence

SMILES: O=C(CCCCCCC(=O)Nc1ccc([C@H]2O[C@@H](CSc3nc(-c4ccccc4)c(-c4ccccc4)o3)C[C@@H](c3ccc(CO)cc3)O2)cc1)NO [Tubacin]
accumulation of acidic lysosomes (red fluorescence) by a panel of HDAC inhibitors (BE(2)-C cells [2]; BE(2)-C): did not increase the amount of red fluorescent cells

IC50 (HDAC10 [7]): > 10000 µM
SMILES: CCCC(CCC)C(=O)O [VPA, valproic acid]
accumulation of acidic lysosomes (red fluorescence) by a panel of HDAC inhibitors (BE(2)-C cells [2]; BE(2)-C): did not increase the amount of red fluorescent cells

SMILES: O=C(CCCCCCC(=O)Nc1ccccc1)NO [Vorinostat (SAHA), N-hydroxy-N′-phenyl-octanediamide]
accumulation of acidic lysosomes (red fluorescence) by a panel of HDAC inhibitors (BE(2)-C cells [2]; BE(2)-C): significant increase in red fluorescence

SMILES: COc1cccc2c1C(=O)c1c(O)c3c(c(O)c1C2=O)C[C@@](O)(C(=O)CO)C[C@@H]3O[C@H]1C[C@H](N)[C@H](O)[C@H](C)O1 [doxorubicin]
autophagic flux, measurable by p62 degradation (BE(2)-C cells [8]): enhanced autophagic flux
sensitivity towards doxorubicin treatment (cell death, % trypan blue positive) (IMR32 cells): highest sensitivity
sensitivity towards doxorubicin treatment (cell death, % trypan blue positive) (BE(2)-C cells [9]): highest resistance

SMILES: CN1C(=O)C(Cc2c[nH]c3ccccc23)NC1=S (centres unmarked) [necrostatin]
viability (metabolic activity) upon HDAC10 knockdown (BE(2)-C cells [5]; 6 d post-transfection, necrostatin 50 μM in combination with z-VAD 20 μM): completely rescue

SMILES: CC(NC(=O)C(NC(=O)OCc1ccccc1)C(C)C)C(=O)NC(CC(=O)O)C(=O)CF (stereo not drawn) [zVAD] (Cbz-Val-Ala-Asp-CH2F; configuration not given here)
effect on HDAC10-knockdown mediated apoptosis (caspase-3 like activity) (BE(2)-C cells [1]): abolished HDAC10-knockdown mediated induction of apoptosis
viability (metabolic activity) upon HDAC10 knockdown (BE(2)-C cells [5]; 6 d post-transfection, z-VAD 20 μM on day 4 and 5): partly restored viability
